# How the values were obtained:
# Dihydrofolate reductase = target: T1, Dihydrofolate reductase (Homo sapiens, UniProt P00374); assay: Inhibition of dihydrofolate reductase (DHFR) in WIL2 cells; format: cell-based; conditions: read-out: I50
# T1 sequence (P00374 whole entry): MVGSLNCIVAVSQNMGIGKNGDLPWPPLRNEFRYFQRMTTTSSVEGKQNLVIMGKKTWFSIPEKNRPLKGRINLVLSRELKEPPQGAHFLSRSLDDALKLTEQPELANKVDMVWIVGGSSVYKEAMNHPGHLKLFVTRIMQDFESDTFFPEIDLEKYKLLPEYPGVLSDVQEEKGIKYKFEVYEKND
# [1] = target: Bifunctional purine biosynthesis protein ATIC (Homo sapiens, UniProt P31939); assay: Inhibition of 5-aminoimidazole-4-carboxamide AICAR formyltransferase in MOLT-4 cells; format: cell-based; conditions: read-out: I50
# Bifunctional purine biosynthesis protein ATIC, sequence (P31939 whole entry): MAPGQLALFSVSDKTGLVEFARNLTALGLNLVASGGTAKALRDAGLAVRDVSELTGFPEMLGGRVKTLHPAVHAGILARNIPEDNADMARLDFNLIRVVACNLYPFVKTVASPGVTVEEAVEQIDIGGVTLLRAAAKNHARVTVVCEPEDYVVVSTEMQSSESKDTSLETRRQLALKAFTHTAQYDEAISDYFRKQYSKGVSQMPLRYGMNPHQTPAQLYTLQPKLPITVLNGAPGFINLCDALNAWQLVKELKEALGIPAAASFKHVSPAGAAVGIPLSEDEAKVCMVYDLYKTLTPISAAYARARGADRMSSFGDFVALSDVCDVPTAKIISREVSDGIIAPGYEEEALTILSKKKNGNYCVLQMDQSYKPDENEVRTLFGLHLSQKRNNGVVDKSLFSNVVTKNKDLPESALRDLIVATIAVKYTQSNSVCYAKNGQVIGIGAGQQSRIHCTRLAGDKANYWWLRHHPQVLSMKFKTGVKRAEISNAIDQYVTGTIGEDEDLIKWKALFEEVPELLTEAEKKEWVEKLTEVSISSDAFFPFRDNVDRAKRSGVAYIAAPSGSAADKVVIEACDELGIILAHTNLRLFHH
# MOLT-4 = assay: Inhibition of the uptake of [3H]MTX influx into MOLT-4 cells.; format: functional, cell-based, Homo sapiens
# MCF7 = assay: Effective dose which is required to inhibit 50% of the cell growth of MCF-7 cells in culture.; format: functional; conditions: Homo sapiens, read-out: ED50 (the source's name)
# [2] = Ratio of relative Vmax values to that of apparent Km values.; format: ADME
# Sus scrofa [3] = species: Sus scrofa; assay: (§1) Compound was evaluated for the substrate activity for hog liver Folyl-polyglutamate synthase
# Thymidylate synthase = Thymidylate synthase (Homo sapiens, UniProt P04818); assay: Inhibition of thymidylate synthase (TS) in human; conditions: read-out: I50
# Thymidylate synthase, sequence (P04818 whole entry): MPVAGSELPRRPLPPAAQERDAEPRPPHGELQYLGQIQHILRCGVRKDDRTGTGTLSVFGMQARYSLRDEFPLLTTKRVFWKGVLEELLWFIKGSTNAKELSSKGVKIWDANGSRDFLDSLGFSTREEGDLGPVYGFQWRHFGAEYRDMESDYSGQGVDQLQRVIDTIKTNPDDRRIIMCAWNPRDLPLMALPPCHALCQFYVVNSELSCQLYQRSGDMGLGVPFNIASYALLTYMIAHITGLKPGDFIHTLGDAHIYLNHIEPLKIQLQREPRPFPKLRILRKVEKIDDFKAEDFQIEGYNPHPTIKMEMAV
# Sus scrofa [4] = species: Sus scrofa; assay: Compound was evaluated for the substrate activity for hog liver […] synthetase
# [5] = system: Folyl-polyglutamate synthase; assay: as §1; format: ADME, tissue-based, Sus scrofa; conditions: pig, hog liver folylpolyglutamate synthase; read-out: Km app
smiles,measurement,setting,value
Nc1nc(O)c2c(n1)NCC(NCc1ccc(C(=O)NC(CCC(=O)O)C(=O)O)cc1)C2 (configuration not stated),IC50,Dihydrofolate reductase,> 1000 µM
same,IC50,[1],> 100 µM
same,Ki,MOLT-4,17.5 µM
same,EC50,MCF7,1.2 µM
same,Ratio,[2],1
same,Km,Sus scrofa [3],67.4 µM
same,IC50,Thymidylate synthase,> 100 µM
Nc1nc(O)c2c(n1)NCC(CCc1ccc(C(=O)NC(CCC(=O)O)C(=O)O)cc1)C2 (configuration not stated),IC50,Dihydrofolate reductase,> 100 µM
same,Ki,MOLT-4,1.5 µM
same,EC50,MCF7,0.018 µM
same,Km,Sus scrofa [3],17.5 µM
same,IC50,Thymidylate synthase,> 1000 µM
CN(Cc1ccc(C(=O)NC(CCC(=O)O)C(=O)O)cc1)C1CNc2nc(N)nc(O)c2C1 (configuration not stated),IC50,Dihydrofolate reductase,> 1000 µM
same,IC50,[1],> 100 µM
same,Ki,MOLT-4,22 µM
same,EC50,MCF7,4.5 µM
same,Ratio,[2],7
same,Km,Sus scrofa [4],9.4 µM
same,IC50,Thymidylate synthase,> 100 µM
Nc1nc(O)c2cc(NCc3ccc(C(=O)NC(CCC(=O)O)C(=O)O)cc3)cnc2n1 (configuration not stated),IC50,Dihydrofolate reductase,0.21 µM
same,IC50,[1],62.8 µM
same,Ki,MOLT-4,> 30 µM
same,EC50,MCF7,> 100 µM
same,Km,Sus scrofa [3],133 µM
same,IC50,Thymidylate synthase,7.1 µM
Nc1nc(N)c(CCCNc2ccc(C(=O)N[C@@H](CCC(=O)O)C(=O)O)cc2)c(O)n1,IC50,Dihydrofolate reductase,> 100 µM
same,Ki,MOLT-4,1 µM
same,Km,[5],6.7 µM
same,EC50,MCF7,0.037 µM
same,Ratio,[2],14.9
same,IC50,Thymidylate synthase,> 100 µM
CN(Cc1ccc(C(=O)NC(CCC(=O)O)C(=O)O)cc1)c1cnc2nc(N)nc(O)c2c1 (configuration not stated),IC50,Dihydrofolate reductase,0.25 µM
same,IC50,[1],141 µM
same,EC50,MCF7,35 µM
same,Ratio,[2],0.85
same,Km,Sus scrofa [3],55.3 µM
same,IC50,Thymidylate synthase,0.48 µM
Nc1nc(O)c2cc(N(C=O)Cc3ccc(C(=O)NC(CCC(=O)O)C(=O)O)cc3)cnc2n1 (configuration not stated),IC50,Dihydrofolate reductase,1.95 µM
same,IC50,[1],49.9 µM
same,EC50,MCF7,> 100 µM
same,Km,Sus scrofa [3],> 100 µM
same,IC50,Thymidylate synthase,28.8 µM
